Results as given in US20030181408A1, “Genes essential for microbial proliferation and antisense thereto” (priority 1999, published 2003).
≈ marks a conversion by molar mass, not a printed value.

Assays:
[1] = system: E. coli transformed with an IPTG-inducible plasmid containing antisense clones; experiment: Cell based assay: antibiotic sensitivity of E. coli expressing sublethal antisense RNA (Example 9)
Source text: The effectiveness of the above cell based assay was validated using constructs expressing antisense RNA to the proliferation required E. coli genes rplL, rplJ, and rplW encoding ribosomal proteins L7/L12, L10 and L23 respectively. These proteins are part of the protein synthesis apparatus of the cell and as such are required for proliferation. These constructs were used to test the effect of antisense expression on cell sensitivity to antibiotics known to bind to the ribosome and thereby inhibit protein synthesis. Constructs expressing antisense RNA to several other genes (elaD, visC, yohh, and atpE/B), the products of which are not involved in protein synthesis were used for comparison.
First pLex5BA (Krause et al., J. Mol. Biol. 274: 365 (1997), the disclosure of which is incorporated herein by reference in its entirety) expression vectors containing antisense constructs to either rplW or to elaD were introduced into separate E. coli cell populations. Vector introduction is a technique well known to those of ordinary skill in the art. The expression vectors of this example contain IPTG inducible promoters that drive the expression of the antisense RNA in the presence of the inducer. However, those skilled in the art will appreciate that other inducible promoters may also be used. Suitable expression vectors are also well known in the art. The E. coli antisense clones encoding ribosomal proteins L7/L12, L10 and L23 were used to test the effect of antisense expression on cell sensitivity to the antibiotics known to bind to these proteins. […]
The cell populations were exposed to a range of IPTG concentrations in liquid medium to obtain the growth inhibitory dose curve for each clone (FIG. 1). First, seed cultures were grown to a particular turbidity that is measured by the optical density (OD) of the growth solution. […] The cells were grown for up to 15 hours and the extent of growth was determined by measuring the optical density of the cultures at 600 nm. […]

[2] = system: bacterial strain engineered for expression of an antisense against rplL and rplJ (50S ribosomal subunit proteins); experiment: microbe, parasite or virus in culture; type: cell-based, E. coli; conditions: read-out: IC50 (+I)
Procedure: Antibiotics of various chemical classes and modes of action were purchased from Sigma Chemicals (St. Louis, Mo.). Stock solutions were prepared by dissolving each antibiotic in an appropriate aqueous solution based on information provided by the manufacturer. The final working solution of each antibiotic contained no more than 0.2% (w/v) of any organic solvent. To determine their potency against a bacterial strain engineered for expression of an antisense against a proliferation-required gene encoding 50S ribosomal protein, each antibiotic was serially diluted two or three fold in growth medium supplemented with the appropriate antibiotic for maintenance of the anti-sense construct. At least ten dilutions were prepared for each antibiotic. 25 μL aliquots of each dilution were transferred to discrete wells of a 384-well microplate (the assay plate) using a multi-channel pipette. Quadruplicate wells were used for each dilution of an antibiotic under each treatment condition (plus and minus inducer). Each assay plate contained twenty wells for cell growth controls (growth media replacing antibiotic), ten wells for each treatment (plus and minus inducer, in this example IPTG). Assay plates were usually divided into the two treatments: half the plate containing induced cells and an appropriate concentrations of inducer (in this example IPTG) to maintain the state of induction, the other half containing non-induced cells in the absence of IPTG.
Cells for the assay were prepared as follows. Bacterial cells containing a construct, from which expression of antisense nucleic acid against rplL and rplJ, which encode proliferation-required 50S ribosomal subunit proteins, is inducible in the presence of IPTG, were grown into exponential growth (OD600 0.2 to 0.3) and then diluted 1:100 into fresh media containing either 400 μM or 0 μM inducer (IPTG). These cultures were incubated at 37° C. for 2.5 hr. After a 2.5 hr incubation, induced and non-induced cells were respectively diluted into an assay medium at a final OD600 value of 0.0004. The medium contained an appropriate concentration of the antibiotic for the maintenance of the anti-sense construct. In addition, the medium used to dilute induced cells was supplemented with 800 μM IPTG so that addition to the assay plate would result in a final IPTG concentration of 400 μM. Induced and non-induced cell suspensions were dispensed (25 μl/well) into the appropriate wells of the assay plate as discussed previously. The plate was then loaded into a plate reader, incubated at constant temperature, and cell growth was monitored in each well by the measurement of light scattering at 595 nm. Growth was monitored every 5 minutes until the cell culture attained a stationary growth phase. For each concentration of antibiotic, a percentage inhibition of growth was calculated at the time point corresponding to mid-exponential growth for the associated control wells (no antibiotic, plus or minus IPTG). For each antibiotic and condition (plus or minus IPTG), a plot of percent inhibition versus log of antibiotic concentration was generated and the IC50 determined.

E. coli = experiment: Inhibition of E. coli proliferation after IPTG induction of antisense clones (liquid growth curves, dilution spotting on plates); type: cell-based, Escherichia coli; conditions: 1 mM IPTG
Procedure: (§1) To study the effects of transcriptional induction in liquid medium, growth curves were carried out by back diluting cultures 1:200 into fresh media with or without 1 mM IPTG and measuring the OD450 every 30 minutes (min). To study the effects of transcriptional induction on solid medium, 10^2, 10^3, 10^4, 10^5, 10^6, 10^7 and 10^8 fold dilutions of overnight cultures were prepared. Aliquots of from 0.5 to 3 μl of these dilutions were spotted on selective agar plates with or without 1 mM IPTG. After overnight incubation, the plates were compared to assess the sensitivity of the clones to IPTG.
(§2) Molecule No. EcXA059, encoding a portion of the ypjA gene of Escherichia coli, was either transformed directly into Enterobacter cloacae, Salmonella typhimurium and/or Klebsiella pneumoniae or subdloned into an expression vector functional in these species and the subclones transformed into these organisms. Suitable expression vectors are well known in the art. These expression vectors were introduced into Enterobacter cloacae, Salmonella typhimurium and/or Klebsiella pneumoniae cells that were then assayed for growth inhibition according to the method of Example 1. After growth in liquid culture, cells were plated at various serial dilutions and a score determined by calculating the log difference in growth for INDUCED vs. UNINDUCED antisense RNA expression as determined by the maximum 10 fold dilution at which a colony was observed. If there was no effect of antisense RNA expression in one organism, the clone is given a score of zero “0” in that organism. In contrast, a score of “8” means that 10^8 times more cells were required to observe a colony formed on the induced state than in the non-induced state under the conditions used and in that organism.

Enterobacter cloacae = experiment: Growth inhibition by IPTG-induced antisense RNA expression in Enterobacter cloacae (induced vs. uninduced serial dilution plating); type: cell-based
Procedure: as §1, §2
(§3) Expression vectors which inhibited growth of E. coli upon induction of antisense RNA expression with IPTG were transformed directly into Enterobacter cloacae, Klebsiella pneumonia or Salmonella typhimurium. The transformed cells were then assayed for growth inhibition according to the method of Example 1. After growth in liquid culture, cells were plated at various serial dilutions and a score determined by calculating the log difference in growth for INDUCED vs. UNINDUCED antisense RNA expression as determined by the maximum 10 fold dilution at which a colony was observed. If there was no effect of antisense RNA expression in a microorganism, the clone is minus in Table V below. In contrast, a positive in Table V below means that at least 10 fold more cells were required to observe a colony on the induced plate than on the non-induced plate under the conditions used and in that microorganism.

Salmonella typhimurium = experiment: Growth inhibition by IPTG-induced antisense RNA expression in Salmonella typhimurium (induced vs. uninduced serial dilution plating); type: cell-based
Procedure: as §1, §2, §3

Klebsiella pneumoniae = experiment: Growth inhibition by IPTG-induced antisense RNA expression in Klebsiella pneumoniae (induced vs. uninduced serial dilution plating); type: cell-based
Procedure: as §1, §2, §3

## CC1COc2c(N3CCN(C)CC3)c(F)cc3c(=O)c(C(=O)O)cn1c23 (centres unmarked) [Ofloxacin]
[1]; clone expressing antisense to rplL and rplJ
  sensitivity to antibiotics which do not inhibit protein synthesis: does not show increased sensitivity
[2]
  IC50: 0.0458 µg/mL (≈ 0.127 µM)

## CN(C)[C@@H]1C(O)=C(C(N)=O)C(=O)[C@@]2(O)C(O)=C3C(=O)c4c(O)cccc4[C@@](C)(O)[C@H]3C[C@@H]12 [Tetracycline]
[1]; cells expressing antisense to genes not involved in protein synthesis (atpB/E, visC, elaD, yohH)
  sensitivity to tetracycline (tetracycline IC50 with IPTG vs. without IPTG): did not show the same increased sensitivity
[1]; cells with reduced levels of L7/L12 (rplL, rplJ) or L23 (rplW), IPTG giving 50% growth inhibition
  sensitivity to tetracycline (tetracycline IC50 with IPTG vs. without IPTG): increased sensitivity

B1: EcXA083: antisense clone insert, E. coli gene hrpB (nucleic acid, listed as Escherichia coli)
DNA: CGGCTTAGCGCGTCGTTGGCATCGAGCATCGCTCCCATGCCGTTTGCCAGTTGATAGCGTCCATCTTGCC
E. coli
  effect of antisense expression on E. coli growth after IPTG induction: reduction in cell growth
Enterobacter cloacae
  Sensitivity of E. cloacae to antisense nucleic acid (growth inhibition, induced vs. uninduced): −
Salmonella typhimurium
  Sensitivity of S. typhimurium to antisense nucleic acid (growth inhibition, induced vs. uninduced): −
Klebsiella pneumoniae
  Sensitivity of K. pneumoniae to antisense nucleic acid (growth inhibition, induced vs. uninduced): −
